Results published in PubChem BioAssay (NCI).
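Cells were grown in 96-well plates and exposed to each compound for 48 hours at five concentrations; endpoints were interpolated linearly between bracketing concentrations, or set to the highest concentration if not reached. GI50 marks 50% less growth. TGI: total growth inhibition.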

Columns and labels:
Test in all cases: DTP human tumour cell line panel, 48 h
T-47D breast = tested on: T-47D breast
OVCAR-5 ovarian = tested on: OVCAR-5 ovarian
MCF7 breast = tested on: MCF7 breast
SR leukemia = tested on: SR leukemia
SF-268 CNS = tested on: SF-268 CNS
MOLT-4 leukemia = tested on: MOLT-4 leukemia
NCI-H226 lung = tested on: NCI-H226 lung
DU-145 prostate = tested on: DU-145 prostate
HS 578T breast = tested on: HS 578T breast
TK-10 renal = tested on: TK-10 renal
HT29 colon = tested on: HT29 colon
NCI-H460 lung = tested on: NCI-H460 lung
SN12C renal = tested on: SN12C renal
OVCAR-8 ovarian = tested on: OVCAR-8 ovarian
LOX IMVI melanoma = tested on: LOX IMVI melanoma
HCC-2998 colon = tested on: HCC-2998 colon
K-562 leukemia = tested on: K-562 leukemia
SNB-19 CNS = tested on: SNB-19 CNS
MDA-MB-468 breast = tested on: MDA-MB-468 breast
U251 CNS = tested on: U251 CNS
SK-MEL-28 melanoma = tested on: SK-MEL-28 melanoma
HCT-15 colon = tested on: HCT-15 colon
SNB-75 CNS = tested on: SNB-75 CNS
HL-60(TB) leukemia = tested on: HL-60(TB) leukemia
COLO 205 colon = tested on: COLO 205 colon
RPMI-8226 leukemia = tested on: RPMI-8226 leukemia
PC-3 prostate = tested on: PC-3 prostate
NCI/ADR-RES ovarian = tested on: NCI/ADR-RES ovarian
MALME-3M melanoma = tested on: MALME-3M melanoma
IGROV1 ovarian = tested on: IGROV1 ovarian
A549 NSCLC = tested on: A549 NSCLC
BT-549 breast = tested on: BT-549 breast
MDA-MB-435 = tested on: MDA-MB-435
CAKI-1 renal = tested on: CAKI-1 renal
786-0 renal = tested on: 786-0 renal
RXF 393 renal = tested on: RXF 393 renal
OVCAR-3 ovarian = tested on: OVCAR-3 ovarian
UO-31 renal = tested on: UO-31 renal
UACC-257 melanoma = tested on: UACC-257 melanoma
A498 renal = tested on: A498 renal
HOP-62 NSCLC = tested on: HOP-62 NSCLC
SF-539 CNS = tested on: SF-539 CNS
OVCAR-4 ovarian = tested on: OVCAR-4 ovarian
KM12 colon = tested on: KM12 colon
ACHN renal = tested on: ACHN renal
SK-MEL-5 melanoma = tested on: SK-MEL-5 melanoma
EKVX NSCLC = tested on: EKVX NSCLC
M14 melanoma = tested on: M14 melanoma
HCT-116 colon = tested on: HCT-116 colon
NCI-H522 lung = tested on: NCI-H522 lung
MDA-MB-231 breast = tested on: MDA-MB-231 breast
HOP-92 NSCLC = tested on: HOP-92 NSCLC
SW-620 colon = tested on: SW-620 colon
UACC-62 melanoma = tested on: UACC-62 melanoma
CCRF-CEM leukemia = tested on: CCRF-CEM leukemia
SK-OV-3 ovarian = tested on: SK-OV-3 ovarian
NCI-H23 lung = tested on: NCI-H23 lung
SK-MEL-2 melanoma = tested on: SK-MEL-2 melanoma
SF-295 CNS = tested on: SF-295 CNS

Compound: O=C(N/N=C/c1ccc(Br)o1)c1[nH]c2ccc(Br)cc2c1-c1ccccc1
- GI50 (T-47D breast): 4180 nM
- TGI (T-47D breast): > 100000 nM
- GI50 (OVCAR-5 ovarian): 372 nM
- TGI (OVCAR-5 ovarian): 22000 nM
- GI50 (MCF7 breast): 341 nM
- TGI (MCF7 breast): > 100000 nM
- GI50 (SR leukemia): 345 nM
- TGI (SR leukemia): 22400 nM
- GI50 (SF-268 CNS): 861 nM
- TGI (SF-268 CNS): > 52900 nM
- GI50 (MOLT-4 leukemia): 431 nM
- TGI (MOLT-4 leukemia): > 38200 nM
- GI50 (NCI-H226 lung): 511 nM
- TGI (NCI-H226 lung): 6320 nM
- GI50 (DU-145 prostate): 391 nM
- TGI (DU-145 prostate): 14700 nM
- GI50 (HS 578T breast): 323 nM
- TGI (HS 578T breast): 12800 nM
- GI50 (TK-10 renal): 5310 nM
- TGI (TK-10 renal): > 46500 nM
- GI50 (HT29 colon): 298 nM
- TGI (HT29 colon): 2980 nM
- GI50 (NCI-H460 lung): 326 nM
- TGI (NCI-H460 lung): 10800 nM
- GI50 (SN12C renal): 377 nM
- TGI (SN12C renal): 14200 nM
- GI50 (OVCAR-8 ovarian): 297 nM
- TGI (OVCAR-8 ovarian): 2830 nM
- GI50 (LOX IMVI melanoma): 336 nM
- TGI (LOX IMVI melanoma): 16300 nM
- GI50 (HCC-2998 colon): 385 nM
- TGI (HCC-2998 colon): 18500 nM
- GI50 (K-562 leukemia): 339 nM
- TGI (K-562 leukemia): > 44500 nM
- GI50 (SNB-19 CNS): 455 nM
- TGI (SNB-19 CNS): > 81800 nM
- GI50 (MDA-MB-468 breast): 228 nM
- TGI (MDA-MB-468 breast): 585 nM
- GI50 (U251 CNS): 337 nM
- TGI (U251 CNS): 16900 nM
- GI50 (SK-MEL-28 melanoma): 1120 nM
- TGI (SK-MEL-28 melanoma): 46900 nM
- GI50 (HCT-15 colon): 353 nM
- TGI (HCT-15 colon): 23900 nM
- GI50 (SNB-75 CNS): 464 nM
- TGI (SNB-75 CNS): 22800 nM
- GI50 (HL-60(TB) leukemia): 235 nM
- TGI (HL-60(TB) leukemia): 690 nM
- GI50 (COLO 205 colon): 227 nM
- TGI (COLO 205 colon): 482 nM
- GI50 (RPMI-8226 leukemia): 415 nM
- TGI (RPMI-8226 leukemia): > 100000 nM
- GI50 (PC-3 prostate): 398 nM
- TGI (PC-3 prostate): > 53800 nM
- GI50 (NCI/ADR-RES ovarian): 231 nM
- TGI (NCI/ADR-RES ovarian): 583 nM
- GI50 (MALME-3M melanoma): 480 nM
- TGI (MALME-3M melanoma): 47500 nM
- GI50 (IGROV1 ovarian): 421 nM
- TGI (IGROV1 ovarian): > 46700 nM
- GI50 (A549 NSCLC): 383 nM
- TGI (A549 NSCLC): 28700 nM
- GI50 (BT-549 breast): 379 nM
- TGI (BT-549 breast): 2130 nM
- GI50 (MDA-MB-435): 216 nM
- TGI (MDA-MB-435): 567 nM
- GI50 (CAKI-1 renal): 424 nM
- TGI (CAKI-1 renal): 24200 nM
- GI50 (786-0 renal): 397 nM
- TGI (786-0 renal): 6150 nM
- GI50 (RXF 393 renal): 443 nM
- TGI (RXF 393 renal): 21400 nM
- GI50 (OVCAR-3 ovarian): 415 nM
- TGI (OVCAR-3 ovarian): 17100 nM
- GI50 (UO-31 renal): 679 nM
- TGI (UO-31 renal): 28800 nM
- GI50 (UACC-257 melanoma): 2690 nM
- TGI (UACC-257 melanoma): > 100000 nM
- GI50 (A498 renal): 23600 nM
- TGI (A498 renal): > 69600 nM
- GI50 (HOP-62 NSCLC): 565 nM
- TGI (HOP-62 NSCLC): 27400 nM
- GI50 (SF-539 CNS): 226 nM
- TGI (SF-539 CNS): 562 nM
- GI50 (OVCAR-4 ovarian): 5390 nM
- TGI (OVCAR-4 ovarian): > 53300 nM
- GI50 (KM12 colon): 352 nM
- TGI (KM12 colon): > 44500 nM
- GI50 (ACHN renal): 504 nM
- TGI (ACHN renal): 40100 nM
- GI50 (SK-MEL-5 melanoma): 204 nM
- TGI (SK-MEL-5 melanoma): 424 nM
- GI50 (EKVX NSCLC): 539 nM
- TGI (EKVX NSCLC): 59900 nM
- GI50 (M14 melanoma): 351 nM
- TGI (M14 melanoma): 30200 nM
- GI50 (HCT-116 colon): 311 nM
- TGI (HCT-116 colon): 4210 nM
- GI50 (NCI-H522 lung): 177 nM
- TGI (NCI-H522 lung): 549 nM
- GI50 (MDA-MB-231 breast): 352 nM
- TGI (MDA-MB-231 breast): 12300 nM
- GI50 (HOP-92 NSCLC): 1140 nM
- TGI (HOP-92 NSCLC): 32700 nM
- GI50 (SW-620 colon): 374 nM
- TGI (SW-620 colon): 22900 nM
- GI50 (UACC-62 melanoma): 395 nM
- TGI (UACC-62 melanoma): > 76500 nM
- GI50 (CCRF-CEM leukemia): 311 nM
- TGI (CCRF-CEM leukemia): 17900 nM
- GI50 (SK-OV-3 ovarian): 731 nM
- TGI (SK-OV-3 ovarian): > 65400 nM
- GI50 (NCI-H23 lung): 393 nM
- TGI (NCI-H23 lung): 29300 nM
- GI50 (SK-MEL-2 melanoma): 407 nM
- TGI (SK-MEL-2 melanoma): > 100000 nM
- GI50 (SF-295 CNS): 353 nM
- TGI (SF-295 CNS): > 38600 nM
